From patent US20250215071A1, “Novel Mcl-1 inhibitor and combination of Mcl-1 and a BH3 mimetic, such as a Bcl-2 inhibitor” (NETRIS PHARMA, priority 2022, published 2025)

System: caspase-9
Assay: UNC5B-induced caspase-9 activity in HeLa UNC5B cells
Format: cell-based, Human
Settings: Dox; 18 hours
Procedure: FIG. 5. UNC5B-mediated Mcl-1 degradation induces MOMP and caspase-9 activation. (A): UNC5B over-expression triggers Mitochondrial Outer Membrane Permeabilization (MOMP) in a COMMD2/CRL3 complex-dependent manner. Hela cells were transfected with scramble (siCTRL), COMMD2 (siCOMMD2-1) or RBX1 (siRBX1-1) siRNAs. 24 hours after transfection, cells were treated with Dox and after further 18 hours mitochondrial depolarization quantified by 5′,6,6′-tetrachloro-1,1′,3,3′-tetraethylbenzimi-dazolylcarbocyanine iodide (JC-1) dye staining, using NucleoCounter NC3000 (n=3, **** p<0.0001, ordinary two-way ANOVA with Tukey's multiple comparisons test). Values are given as means±SEM. (B,C,D): Apoptotic cell death induced by UNC5B over-expression requires caspase-9. HeLa UNC5B cells were transfected with scramble (siCTRL) or caspase-9 (siCASP9) siRNAs and 24 hours later treated with the indicated concentrations of Dox. Propidium iodide (PI)-positive cells were assessed in real-time up to 48 hours using Incucyte Zoom instrument (C) (n=[…], Kolmogorov-Smirnov test). DNA fragmentation was assessed by FACS analysis (D) and caspase-3 was measured using caspase-3 fluorometric kit (E), both 18 hours after treatment (n=[…], **** p<0.0001, ordinary two-way ANOVA with Šidák's multiple comparisons test). Values are given as means±SEM. […] HeLa UNC5B cells were treated with Dox and 18 hours later caspase-9 and -8 activities were assessed by fluorometric kit, using specific substrates (n=3, ^nsp>0.05, *p<0.05, Mann-Whitney test, one-tailed). […] 24 hours later, cells were treated with Dox and caspase-9 activity was measured by fluorometric kit (n=3, **** p<0.0001, ordinary two-way ANOVA with Tukey's multiple comparisons test). […] 18 hours after treatment, caspase-9 activity was assessed with the fluorometric kit (n=5, *p<0.05, ** p<0.01, *** p<0.001, **** p<0.0001, ordinary two-way ANOVA with Tukey's multiple comparisons test). […] Cells were then treated with Dox and Mcl-1 protein was evaluated by western blot. […]

## CC(C)C[C@H](NC(=O)[C@H](Cc1ccccc1)NC(=O)c1cnccn1)B(O)O [bortezomib]
  UNC5B-induced caspase-9 activation: sufficient to prevent UNC5B-induced caspase-9 activation
